From patent publication US7741344B2, “Process for preparing purified S-BEL and R-BEL and compositions thereof” (Washington University in St. Louis, priority 2002, dated 2010)

Assays:
[1] = target: T1, α-chymotrypsin (Bos taurus, UniProt P00766); test: Inhibition of α-chymotrypsin by BEL; format: biochemical; conditions: 2 μM chymotrypsin, up to 5-fold molar excess of inhibitor, 5 min 22° C., then 1000-fold dilution with 100 mM hydrazine; FIG. 3
T1 construct: purchased Sigma
Experimental: Inhibition of α-Chymotrypsin by BEL—The kinetics of α-chymotrrpsin inactivation by (R)-, (S)-, and rac-BEL were performed similar to methods previously described (36). The concentration of α-chymotrypsin (MW=25,000) was determined using an A^1%=20 (1 cm pathlength) at 280 nm (37). Briefly, one milliliter of α-chymotrypsin (2 μM) was incubated with up to a 5-fold molar excess of (R)-,(S)-, or rac-BEL dissolved in acetonitrile or vehicle alone for 5 mm at 22° C. in 0.1 M sodium phosphate buffer, pH 7.2. […] Following incubation at 22° C. for 1 hr, chymotrypsin activity in each diluted sample was measured utilizing a SPECTRAmax GeminiXS microplate spectrofluorometer with N-succinyl-Ala-Ala-Pro-Phe-7-amidomethylcoumarin (50 μM) as substrate for 1 mm at 25° C. Excitation and emission wavelengths were 380 nm and 460 nm, respectively.
Chymotrypsin (2 μM) in 0.1 M sodium phosphate buffer, pH 7.2 was incubated with the indicated concentrations of racemic, (R)-, or (S)-BEL for 5 mm. This solution was then diluted 1000-fold in 0.1 M sodium phosphate buffer, pH 7.2 containing 100 mM hydrazine and incubated for 1 hr at 22° C. Chymotrypsin proteolytic activity was measured spectrofluorometrically using N-succinyl-Ala-Ala-Pro-Phe-7-amido-4-methylcoumarin (50 μM) as substrate.

[2] = system: phosphatidate phosphohydrolase in A-10 cells; test: Total phosphatidate phosphohydrolase activity in homogenates of intact A-10 cells pretreated with BEL; format: cell-based, rat; conditions: intact A-10 cells exposed to up to 100 μM; FIG. 6B
Experimental: Measurement of Cytosolic and Membrane-bound Phosphatidate Phosphohydrolase Activities—A-10 cells were grown to confluency, washed twice in ice-cold phosphate-buffered saline, and harvested in lysis buffer (50 mM Tris-HCl, pH 7.4 containing 0.25 M sucrose and 0.2 mM DTT). After brief sonication utilizing a Vibra-Cell VC4O sonicator (5×1 s pulses at 30% power), the lysed cell suspension was centrifuged at 100,000×g for 1 hr to separate cytosolic and membrane fractions. In some tests, A-10 cells were washed and pretreated with BEL or ethanol vehicle (as described above for tests examining [^3H]-AA liberation) before isolation of cell homogenates. […] Reactions were terminated with 900 μL of 5% acetic acid and extracted into chloroform by the method of Bligh and Dyer (38) prior to separating dipaliitoyl glycerol by TLC utilizing chloroform: methanol: water (65:35:2) as the mobile phase prior to quantification by scintillation spectrometry.
A-10 cells plated on 100 mm dishes were washed 2× in ice-cold PBS and harvested in lysis buffer (50 mM Tris-HCl, pH 7.4 containing 0.25 M sucrose and 0.2 mM DTT). […] In panel B, intact A-10 cells were washed and pretreated with BEL or ethanol vehicle (as described in FIG. 5) before isolation of the cell homogenate and quantification of phosphatidate phosphohydrolase activity as described above. […]

[3] = target: T2, recombinant human iPLA2γ (Homo sapiens, UniProt Q9NP80); conditions: previous experiments (24, 31); cited from earlier work
T2 construct: Recombinant full-length iPLA2γ was expressed in Sf9 cells; made in house; host or cells: Sf9 cells (washed membrane fraction, not purified)
T2 sequence (Q9NP80 1-782): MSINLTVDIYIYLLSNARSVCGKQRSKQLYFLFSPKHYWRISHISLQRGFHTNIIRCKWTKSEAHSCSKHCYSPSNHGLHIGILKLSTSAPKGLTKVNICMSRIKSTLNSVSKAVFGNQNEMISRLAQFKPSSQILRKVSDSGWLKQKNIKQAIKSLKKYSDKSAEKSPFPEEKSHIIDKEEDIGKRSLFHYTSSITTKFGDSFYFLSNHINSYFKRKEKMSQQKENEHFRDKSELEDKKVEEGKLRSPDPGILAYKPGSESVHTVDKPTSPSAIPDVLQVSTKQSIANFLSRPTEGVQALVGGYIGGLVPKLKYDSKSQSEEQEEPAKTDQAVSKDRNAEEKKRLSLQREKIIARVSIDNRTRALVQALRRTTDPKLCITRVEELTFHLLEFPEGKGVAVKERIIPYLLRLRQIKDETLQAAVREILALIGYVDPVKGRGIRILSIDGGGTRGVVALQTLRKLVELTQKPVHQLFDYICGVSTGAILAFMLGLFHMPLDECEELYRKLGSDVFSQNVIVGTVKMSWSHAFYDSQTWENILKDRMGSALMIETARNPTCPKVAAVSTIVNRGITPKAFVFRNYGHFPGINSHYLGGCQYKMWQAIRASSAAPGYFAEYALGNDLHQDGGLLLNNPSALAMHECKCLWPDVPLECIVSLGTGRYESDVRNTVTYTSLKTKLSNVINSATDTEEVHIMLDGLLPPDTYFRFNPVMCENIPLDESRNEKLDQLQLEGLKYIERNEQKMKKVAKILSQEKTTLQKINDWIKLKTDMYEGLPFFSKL

[4] = system: PAP-1 in mouse P388D1 macrophages; conditions: ≈25 μM; (33); cited from earlier work
[5] = system: PAP-1 in human amnionic WISH cells; conditions: ≈25 μM; (34); cited from earlier work
[6] = system: P388D1 macrophages; conditions: up to 5 μM BEL; (15); cited from earlier work

Row | Structure (SMILES) | inhibition of chymotrypsin [1] | total phosphatidate phosphohydrolase activity in comparison to ethanol-treated controls [2] | IC50 [3] [µM] | inhibition of PAP-1 in mouse P388D1 macrophages [4] | inhibition of PAP-1 in human amnionic WISH cells [5] | levels of diacylglycerol or phosphatidic acid formed upon stimulation with zymosan [6]
1 | O=C1O/C(=C/Br)CC[C@@H]1c1cccc2ccccc12 [(R)-BEL, (R)(E)-6-(bromomethylene)-3-(1-naphthalenyl)-2H-tetrahydropyran-2-one] | stoichiometrically and irreversibly inhibited | – | – | – | – | –
2 | O=C1OC(=CBr)CCC1c1cccc2ccccc12 (racemic) [rac-BEL, Racemic (E)-6-(bromomethylene)-3-(1-naphthalenyl)-2H-tetrahydropyran-2-one] | – | did not inhibit | ~3 | effectively inhibit | effectively inhibit | does not significantly effect
